Laboratory results reported in US11179471B2, “Peptide for cytosolic delivery” (priority 2017, dated 2021).
pEC50: −log10 of the molar value. “Also recorded” adds a separate entry of the source. Where two headings read alike, the source gives them in different places. Non-standard residues stand in square brackets, D forms with d. No end group written: not given here. hArg = N=C(N)NCCCC[C@H](N)C(=O)O; Aad = N[C@@H](CCCC(=O)O)C(=O)O

Tests used:
[1] = test system: mitochondrial membrane of HeLa cells
Excerpt: Mitochondrial membranes are considered to be rich in acidic lipid, as compared with cell membranes. Accordingly, the effects of the above peptides on a mitochondrial membrane were examined by JC-1 assay. A JC-1 reagent emits red (J-aggregate) fluorescence when the mitochondrial membrane is kept normal and the membrane potential is maintained; and the JC-1 reagent emits green (J-monomer) fluorescence when the mitochondrial membrane is damaged and the membrane potential is not kept normal. After HeLa cells were incubated with HAad, HA/E2, or L17E (40 μM) in α-MEM(−) for 1 hour, JC-1 assay was performed. The percentage of cells that emitted red fluorescence was assayed by flow cytometry.

HeLa cells [2] = assay: Release of Alexa 488-dextran (10 kDa) into the cytoplasm, confocal microscopy; assay type: cell-based
Protocol: Cells; HeLa, peptides; 40 μM, Alexa 488-dextran (10 kDa); 200 μg/mL, treatment; 1 hr in α-MEM(−).
Cells; HeLa, peptides; 40 μM, Alexa 488-dextran (10 kDa); 200 μg/mL, treatment; 1 hr in α-MEM(−). The results are presented as means ±SE (n=3). **; p<0.01 (Student's t-test).
Cells; HeLa, peptides; 40 μM, Alexa 488-dextran (10 kDa); 200 μg/mL, treatment; 1 hr in α-MEM(−). Results are presented as means±SE (n=3). *; p<0.05, **; p<0.01, ***; p<0.001 (one-way ANOVA followed by the Tukey-Kramer honestly significant difference test (post-hoc test)).
(§1) In the presence of each peptide obtained in Example 1 (L17E, L17E/Q21E, HA/E1, HA/E2) (40 μM) or in the absence of the peptides (a control, no peptide), HeLa cells and Alexa 488-dextran (Molecular Probes, 10 kDa) (200 μg/mL) were treated in α-MEM(−) for 1 hour. The cells were washed, and observed with a confocal microscope.
as §1, with “L17Aad)” for “L17E/Q21E, HA/E1, HA/E2)”
as §1, with “(HAad, HA/E2, L17Aad, L17E)” for “(L17E, L17E/Q21E, HA/E1, HA/E2)”
When HeLa cells were incubated with Alexa 488-dextran (10 kDa) (200 μg/mL) as a macromolecular drug model in the presence of HAad (40 μM) in α-MEM(−) for 1 hour, Alexa 488-dextran release into about 75% of cells (cytosol) was observed. In contrast, when the incubation was performed in the presence of L17E, Alexa 488-dextran release into about 50% of the cells was observed.
HeLa cells, Alexa 488-dextran (Molecular Probes, 10 kDa) (200 μg/mL), and HAad; or HeLa cells, Alexa 488-dextran, (Molecular Probes, 10 kDa) (200 μg/mL), and HAad-homoR (20 μM) were treated in α-MEM(−) for 1 hour. The cells were washed, and observed with a confocal microscope.

HeLa cells [3] = assay: Intracellular release of Alexa 488-labeled human immunoglobulin (IgG, circa 160 kDa); assay type: cell-based; details: for cells in which intracellular release of human immunoglobulin was observed: α-MEM(−) 1 hour
Protocol: The cells and human immunoglobulin fluorescently labeled with Alexa 488 (IgG, circa 160 kDa) (500 μg/mL) were incubated in the presence of HAad, HA/E2, or L17E (40 μM each) in α-MEM(−) medium for 1 hour in the same manner as in Example 6.
The cells and human immunoglobulin fluorescently labeled with Alexa 488 (IgG, circa 160 kDa) (50 μg/mL: 1/10 the volume of Example 8) were incubated in the presence of HAad or L17E (40 μM each) in α-MEM(−) medium for 1 hour.
In the presence of HAad or L17E (20 μM each: ½ the amount used in Examples 8 and 9), the cells and human immunoglobulin fluorescently labeled with Alexa 488 (IgG, circa 160 kDa) (500 μg/mL: the same amount as in Example 8) were incubated in α-MEM(−) medium for 1 hour. […] (In FIG. 9, the intracellular release achieved by treatment with a low concentration of HAad was 2.5 times the release achieved by L17E. With respect to the peptide concentration required to detect the signal of intracellularly released human immunoglobulin in 35% of the cells, the concentration of L17E is 40 μM, and the concentration of HAad is 20 μM, which is half the concentration of L17E.)

[4] = Helix content from CD spectra in the presence of POPC/POPG (3:1) liposomes; assay type: physicochemical; details: result in words (FIG. 1)
Protocol: The helix content was calculated by the method of Y. H. Chen et al., 1972, based on 222-nm molar ellipticity ([…]) using the following formula: Helicity (%)=−([θ]222+2340)/30300*100.
The helix content of the peptides obtained in Example 1 (L17E, L17E/Q21E, L17Aad, HA/E1, HA/E2, and HAad) was calculated in the presence of POPC/POPG (3:1) liposomes by the method of Y. H. Chen et al., 1972, based on 222-nm molar ellipticity ([θ]222) using the following formula: Helix content (%)=−([θ]222+2340)/30300*100. Further, the CD spectra of the peptides were measured.

NIH3T3 cells = assay: Intracellular release of dextran (10 kDa) in NIH3T3 cells; assay type: cell-based; details: peptide 40 μM, dextran (10 kDa), DEME(−) medium 1 hour
Protocol: Intracellular release of dextran is more difficult in NIH3T3 cells than in HeLa cells. NIH3T3 cells and dextran (10 kDa) were incubated in the presence of HAad, HA/E2, or L17E (40 μM each) in DEME(−) medium for 1 hour in the same manner as in Example 6.

[5] = test system: HeLa cells transfected with a plasmid encoding loxP-DsRed-loxP-EGFP; assay: Genetic recombination assay by intracellular delivery of Cre protein (EGFP expression); assay type: cell-based; details: for proportion of GFP-expressing cells: Cre-His6 10 μM, peptide 40 μM, 1 hour, then 24 hours in α-MEM(+); for increase of genetic recombination as compared with no peptide administration: EGFP expression with no release peptide was 9%
Protocol: HeLa cells transfected with a plasmid encoding loxP-DsRed-loxP-EGFP, which were prepared in the same manner as in the Examples of PTL 2, were incubated with His-tag fusion Cre (Cre-Hiss) (10 μM) in the presence of HAad, HA/E2, or L17E (40 μM each) for 1 hour. This system was designed to express EGFP when intracellular release of Cre protein induces genetic recombination. […] The proportions of GFP-expressing cells in the cells treated with HAad, HA/E2, and L17E were 41%, 36%, and 30%, respectively. Considering the fact that the EGFP expression efficiency achieved with no administration of a release peptide was 9%, peptide administration of HAad, HA/E2, and L17E can be considered to increase genetic recombination by 32%, 27%, and […], respectively, as compared with no peptide administration.

cells = assay: Cell viability 24 hours after peptide treatment in the presence of serum (WST-8); assay type: cell-based; details: 10-40 μM; α-MEM(+) 24 hours
Protocol: (§2) After the cells were incubated in the presence of HAad, HA/E2, or L17E (each 10 μM, 20 μM, and 40 μM) in α-MEM(+) medium for 24 hours, the cell viability (%) was evaluated by WST-8 assay (FIG. 14). The cell viability (%) after 24 hours with the use of any peptide at any concentration was almost 100%.

[6] = as above; assay type: cell-based; details: cells (cell line not given); peptide 10 μM, 20 μM and 40 μM; α-MEM(+) 24 hours; WST-8
Protocol: as §2

HeLa cells [7] = assay: Nuclear accumulation of NLS-EGFP; assay type: cell-based; details: NLS-EGFP 10 μM; peptide 40 μM; α-MEM(−) 1 hour
Protocol: The cells and NLS-EGFP (10 μM) were incubated in the presence of HAad or L17E (40 μM each) in α-MEM(−) medium for 1 hour in the same manner as in Example 6. If NLS-EGFP is intracellularly released while maintaining its activity, localization of green fluorescence in the nuclei is observed. […] A high activity of HAad to release endosome-encapsulated substances was also confirmed in this system.

HeLa cells [8] = assay: Release of Alexa 488-dextran (10 kDa) into the cytoplasm, confocal microscopy; assay type: cell-based; details: Alexa 488-dextran (10 kDa) 200 μg/mL, 1 hour, read-out: peptide concentration required to detect the signal of intracellularly released Alexa 488-dextran in 50% of the cells
[9] = HeLa, 40 μM, 1 hour in α-MEM(−), Lipofectamine LTX/pCI complex overnight in α-MEM(+)

| Molecule | effect on mitochondrial membrane (cells emitting red JC-1 fluorescence), in words [1] | endosome-encapsulated substance (Alexa 488-dextran) releasing activity, in words (HeLa cells [2]; peptide 40 μM, Alexa 488-dextran 200 μg/mL, 1 hr, compared with L17E) | effect on mitochondrial membrane (cells emitting red JC-1 fluorescence), in words [1, 9] | cells in which intracellular release of human immunoglobulin was observed (HeLa cells [3]; peptide 40 μM, IgG 500 μg/mL) | helicity in the presence of an acidic lipid membrane [4] | cells in which intracellular release of dextran was observed (NIH3T3 cells) | proportion of GFP-expressing cells [5] | increase of genetic recombination as compared with no peptide administration [5] | toxicity, in words (cells) | viability at 24 h [6] | cells in which release of Alexa 488-dextran into the cytoplasm was observed (HeLa cells [2]; peptide 20 μM, Alexa 488-dextran (10 kDa) 200 μg/mL, 1 hour in α-MEM(−)) | cells in which Alexa 488-dextran release into the cytosol was observed (HeLa cells [2]; peptide 40 μM, Alexa 488-dextran (10 kDa) 200 μg/mL, 1 hour in α-MEM(−)) | cells in which localization of NLS-EGFP in the nuclei was observed (HeLa cells [7]) | peptide concentration required to detect the signal of intracellularly released human immunoglobulin in 35% of the cells (HeLa cells [3]; IgG 500 μg/mL, 1 hour) | cells in which intracellular release of human immunoglobulin was observed (HeLa cells [3]; peptide 20 μM, IgG 500 μg/mL) | cells in which intracellular release of human immunoglobulin was observed (HeLa cells [3]; peptide 40 μM, IgG 50 μg/mL) | pEC50 (HeLa cells [8]) |
| --- | --- | --- | --- | --- | --- | --- | --- | --- | --- | --- | --- | --- | --- | --- | --- | --- | --- |
| N#CC(C#N)=NNc1ccc(OC(F)(F)F)cc1 [FCCP, carbonyl cyanide-p-trifluoromethoxyphenylhydrazone, reference compound] | changed to emit green fluorescence | – | – | – | – | – | – | – | – | – | – | – | – | – | – | – | – |
| H-IWLTALKFLGKAAAKAEAKQELSKL-NH2 [HA/E2, IWLTALX^5FLGX^6AAAX^7AEAX^8QELSX^9L-amide] | – | higher endosomal content release activity than L17E; also recorded: Significant outflow; also recorded: equivalent to that of HA/E1; also recorded: significantly higher endosome-encapsulated substance releasing activity than L17E | no significant difference from the untreated case | ~45% | high helicity | ~25% | 36% | 27% | no significant toxicity | ~100% | – | – | – | – | – | – | – |
| H-IWLTALZFLGZAAAZAXAZQXLSZL-amide (H-IWLTAL[hArg]FLG[hArg]AAA[hArg]A[Aad]A[hArg]Q[Aad]LS[hArg]L-NH2; SMILES CC[C@H](C)[C@H](N)C(=O)N[C@@H](Cc1c[nH]c2ccccc12)C(=O)N[C@@H](CC(C)C)C(=O)N[C@H](C(=O)N[C@@H](C)C(=O)N[C@@H](CC(C)C)C(=O)N[C@@H](CCCCNC(=N)N)C(=O)N[C@@H](Cc1ccccc1)C(=O)N[C@@H](CC(C)C)C(=O)NCC(=O)N[C@@H](CCCCNC(=N)N)C(=O)N[C@@H](C)C(=O)N[C@@H](C)C(=O)N[C@@H](C)C(=O)N[C@@H](CCCCNC(=N)N)C(=O)N[C@@H](C)C(=O)N[C@@H](CCCC(=O)O)C(=O)N[C@@H](C)C(=O)N[C@@H](CCCCNC(=N)N)C(=O)N[C@@H](CCC(N)=O)C(=O)N[C@@H](CCCC(=O)O)C(=O)N[C@@H](CC(C)C)C(=O)N[C@@H](CO)C(=O)N[C@@H](CCCCNC(=N)N)C(=O)N[C@@H](CC(C)C)C(N)=O)[C@@H](C)O; listed as Lycosa carolinensis) [HAad-homoR] | – | – | – | – | – | – | – | – | – | – | 75% | – | – | – | – | – | – |
| IWLTALKFLGKHAAKHEAKQQLSKL-NH2 [L17E, IWLTALX^5FLGX^6HAAX^7HEAX^8QQLSX^9L-amide, reference compound] | – | – | decreased slightly | ~35% | – | ~17% | 30% | 22% | no significant toxicity | ~100% | – | about 50% | ~56% | 40 µM | about 15% | about 10% | 4.40 |
